According to ChEMBL document CHEMBL1201862, “PubChem BioAssay data set” (2004):
Active and inactive are the calls of the source.

How the values were obtained:
[1] = viability of BHK-21 cells – cell-based, secondary screen, cytotoxicity control for flavivirus guanylyltransferase probe project (AID 624078); assay type: functional
[2] = T. cruzi infection blockers in NIH3T3 cells – beta-gal luminescence, NIH3T3 host cells, confirmation (AID 2630); assay type: functional, cell-based; conditions: Mus musculus
Caspase-3 = molecular target: T1, Caspase-3 (Homo sapiens, UniProt P42574); assay type: functional;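 note: Dose-response selectivity test against caspase-3 for candidate inhibitors of sentrin-specific proteases (SENPs)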
T1 sequence (P42574 whole entry): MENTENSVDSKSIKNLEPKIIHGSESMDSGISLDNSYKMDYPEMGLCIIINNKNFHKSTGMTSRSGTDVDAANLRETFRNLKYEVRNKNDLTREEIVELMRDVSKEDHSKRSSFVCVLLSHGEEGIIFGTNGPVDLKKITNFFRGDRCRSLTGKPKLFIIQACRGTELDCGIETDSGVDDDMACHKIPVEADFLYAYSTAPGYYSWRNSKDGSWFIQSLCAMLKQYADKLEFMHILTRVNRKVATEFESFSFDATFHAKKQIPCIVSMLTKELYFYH

[3] = HEK-293T viability loss after treatment – luminescence, T-cell screen hits, cytotoxicity control for TCR NF-kB inhibitor project, dose response (AID 489026); assay type: functional, cell-based;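 note: cells exposed to compound about 14 hours before the viability readout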
[4] = Fluorescence-based cell-based high throughput dose response assay for inhibitors of the interaction of nucleotide-binding oligomerization domain containing 2 (NOD2) and the receptor-interacting serine-threonine kinase 2 (RIPK2).; assay type: functional, Homo sapiens; conditions: Homo sapiens
[5] = molecular target: T2, Heat shock factor protein 1 (Mus musculus, UniProt P38532); experiment: decrease of HSF1-responsive luciferase luminescence – cell-based, NIH3T3, dose retest, confirmation (AID 2382); assay type: functional;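 note: NIH3T3 fibroblasts with HSF1-driven luciferase reporter stressed by proteasome inhibitor MG132; luminescence from HSF1-driven luciferase expression after 8 hours of MG132 stress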
T2 sequence (P38532 whole entry): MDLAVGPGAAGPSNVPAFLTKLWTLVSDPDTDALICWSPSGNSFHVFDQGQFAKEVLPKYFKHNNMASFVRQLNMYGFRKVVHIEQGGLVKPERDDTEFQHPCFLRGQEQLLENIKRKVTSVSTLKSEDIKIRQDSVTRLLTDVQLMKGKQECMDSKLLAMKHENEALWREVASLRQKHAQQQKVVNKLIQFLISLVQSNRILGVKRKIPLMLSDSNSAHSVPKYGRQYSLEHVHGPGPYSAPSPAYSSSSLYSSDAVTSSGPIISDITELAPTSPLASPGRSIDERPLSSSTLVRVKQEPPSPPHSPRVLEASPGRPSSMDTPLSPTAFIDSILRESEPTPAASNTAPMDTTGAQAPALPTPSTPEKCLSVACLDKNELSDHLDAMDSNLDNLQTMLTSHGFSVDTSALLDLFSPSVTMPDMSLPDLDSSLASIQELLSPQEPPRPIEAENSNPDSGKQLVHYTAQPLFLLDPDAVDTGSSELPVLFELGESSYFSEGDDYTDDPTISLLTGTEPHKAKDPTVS

Fatty acid synthase = Fatty acid synthase (Homo sapiens, UniProt P49327); experiment: inhibition of human FAS-TE enzyme activity – biochemical, endpoint fluorescence intensity, uHTS hits, dose response (AID 624327); assay type: functional;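 note: fluorescence from hydrolysis of an O-methyl fluorescein acyl ester substrate by the enzyme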
Fatty acid synthase, sequence (P49327 whole entry): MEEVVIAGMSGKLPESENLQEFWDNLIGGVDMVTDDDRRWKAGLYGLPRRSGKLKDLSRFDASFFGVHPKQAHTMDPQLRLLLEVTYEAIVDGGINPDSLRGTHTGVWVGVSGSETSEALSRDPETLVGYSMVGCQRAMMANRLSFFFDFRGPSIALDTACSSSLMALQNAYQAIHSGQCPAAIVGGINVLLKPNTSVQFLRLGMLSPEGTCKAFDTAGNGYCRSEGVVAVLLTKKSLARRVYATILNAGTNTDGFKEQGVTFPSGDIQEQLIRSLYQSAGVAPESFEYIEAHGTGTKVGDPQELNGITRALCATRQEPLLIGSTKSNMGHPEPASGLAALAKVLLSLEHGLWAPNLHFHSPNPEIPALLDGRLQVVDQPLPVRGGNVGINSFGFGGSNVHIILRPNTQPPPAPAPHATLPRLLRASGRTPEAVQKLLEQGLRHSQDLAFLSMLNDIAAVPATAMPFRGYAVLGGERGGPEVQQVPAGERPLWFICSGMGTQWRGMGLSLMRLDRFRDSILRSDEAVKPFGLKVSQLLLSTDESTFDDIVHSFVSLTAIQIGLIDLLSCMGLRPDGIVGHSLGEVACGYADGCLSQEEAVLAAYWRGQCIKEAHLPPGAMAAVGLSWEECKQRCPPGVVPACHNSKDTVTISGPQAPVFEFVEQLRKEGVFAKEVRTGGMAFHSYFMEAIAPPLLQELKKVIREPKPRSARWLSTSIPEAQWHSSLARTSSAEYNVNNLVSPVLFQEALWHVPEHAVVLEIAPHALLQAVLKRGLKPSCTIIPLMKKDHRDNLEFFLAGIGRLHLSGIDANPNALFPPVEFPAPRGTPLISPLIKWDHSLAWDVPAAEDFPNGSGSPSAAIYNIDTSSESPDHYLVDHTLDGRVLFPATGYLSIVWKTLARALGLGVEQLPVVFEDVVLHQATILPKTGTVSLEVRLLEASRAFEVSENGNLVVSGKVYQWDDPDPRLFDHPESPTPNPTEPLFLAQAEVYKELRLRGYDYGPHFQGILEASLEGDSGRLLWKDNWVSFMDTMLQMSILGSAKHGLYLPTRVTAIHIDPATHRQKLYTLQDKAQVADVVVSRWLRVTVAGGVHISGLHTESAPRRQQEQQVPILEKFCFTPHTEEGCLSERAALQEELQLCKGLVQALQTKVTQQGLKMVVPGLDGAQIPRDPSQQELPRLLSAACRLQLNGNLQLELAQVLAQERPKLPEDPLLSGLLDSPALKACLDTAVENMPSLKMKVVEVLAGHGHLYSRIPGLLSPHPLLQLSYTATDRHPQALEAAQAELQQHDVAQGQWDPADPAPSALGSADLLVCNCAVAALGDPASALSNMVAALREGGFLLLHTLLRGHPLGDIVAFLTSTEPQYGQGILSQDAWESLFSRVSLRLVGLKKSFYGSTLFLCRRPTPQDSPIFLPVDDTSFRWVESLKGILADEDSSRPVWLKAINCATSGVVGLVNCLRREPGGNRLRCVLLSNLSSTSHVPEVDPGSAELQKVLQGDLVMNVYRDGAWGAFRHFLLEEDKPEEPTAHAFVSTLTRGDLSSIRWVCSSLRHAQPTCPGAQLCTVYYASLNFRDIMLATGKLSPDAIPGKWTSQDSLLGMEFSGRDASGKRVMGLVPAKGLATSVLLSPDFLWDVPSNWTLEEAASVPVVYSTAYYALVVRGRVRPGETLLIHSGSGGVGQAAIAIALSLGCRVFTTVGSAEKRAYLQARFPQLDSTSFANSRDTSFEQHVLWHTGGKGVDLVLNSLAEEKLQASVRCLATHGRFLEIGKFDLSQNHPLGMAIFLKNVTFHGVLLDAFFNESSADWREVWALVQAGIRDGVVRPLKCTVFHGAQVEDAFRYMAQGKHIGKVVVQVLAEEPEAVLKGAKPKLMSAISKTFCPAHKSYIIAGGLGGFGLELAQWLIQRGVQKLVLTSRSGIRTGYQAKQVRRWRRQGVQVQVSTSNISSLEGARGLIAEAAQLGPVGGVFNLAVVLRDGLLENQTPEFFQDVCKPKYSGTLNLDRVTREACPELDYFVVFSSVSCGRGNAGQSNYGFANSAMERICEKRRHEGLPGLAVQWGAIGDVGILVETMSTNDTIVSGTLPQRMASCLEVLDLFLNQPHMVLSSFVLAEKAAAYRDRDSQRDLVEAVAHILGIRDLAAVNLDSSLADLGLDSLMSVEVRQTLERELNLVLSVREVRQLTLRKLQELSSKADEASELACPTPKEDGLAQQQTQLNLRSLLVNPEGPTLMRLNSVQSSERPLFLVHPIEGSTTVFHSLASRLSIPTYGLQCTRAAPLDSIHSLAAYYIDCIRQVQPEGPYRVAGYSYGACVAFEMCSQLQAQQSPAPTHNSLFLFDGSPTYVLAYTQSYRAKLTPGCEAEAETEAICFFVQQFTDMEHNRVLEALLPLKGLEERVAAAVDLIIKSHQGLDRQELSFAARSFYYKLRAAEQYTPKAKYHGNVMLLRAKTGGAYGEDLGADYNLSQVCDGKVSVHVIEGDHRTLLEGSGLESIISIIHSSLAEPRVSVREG

[6] = viability loss in HeLa cells – cytotoxicity control for MgcRacGAP inhibitor project, dose response (AID 624300); assay type: functional
[7] = molecular target: T3, Sphingosine 1-phosphate receptor 4 (Homo sapiens, UniProt O95977); experiment: Fluorescence dose response cell-based high throughput screening assay for antagonists of the Sphingosine 1-Phosphate Receptor 4 (S1P4). [Related pubchem assays: 1524 (Confirmation in triplicates.), 1510 (Primary screen.)]; assay type: functional
T3 sequence (O95977 whole entry): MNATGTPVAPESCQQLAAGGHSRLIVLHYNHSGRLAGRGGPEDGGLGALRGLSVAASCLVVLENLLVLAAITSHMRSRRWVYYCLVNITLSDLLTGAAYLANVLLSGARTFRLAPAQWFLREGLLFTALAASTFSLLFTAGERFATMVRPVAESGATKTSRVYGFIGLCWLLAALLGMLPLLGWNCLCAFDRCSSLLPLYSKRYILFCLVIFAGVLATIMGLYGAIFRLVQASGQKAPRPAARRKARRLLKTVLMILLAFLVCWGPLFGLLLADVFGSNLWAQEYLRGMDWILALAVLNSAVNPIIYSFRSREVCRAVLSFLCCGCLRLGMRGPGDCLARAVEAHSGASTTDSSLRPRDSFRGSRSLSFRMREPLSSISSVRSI

SMILES: O=C(O)CSc1cc(NS(=O)(=O)c2ccc(Br)cc2)c2ccccc2c1O
- CC50 [1]: 7.81 µM (active)

SMILES: O=C(CNc1cccc2ccccc12)N/N=C/c1ccc([N+](=O)[O-])o1
- EC50 [2]: 0.022 µM (active)

SMILES: O=C1NC(=S)N/C1=C/c1cc2c(cc1[N+](=O)[O-])OCO2
- IC50 (Caspase-3): 27.6 µM (active)

SMILES: Cc1ccc(NC(=O)C2=C(c3ccccc3)S(=O)(=O)CCS2(=O)=O)cc1
- IC50 [3]: > 80 µM (inactive)
- IC50 [4]: 2.73 µM (active)
- EC50 [5]: 6.3 µM (active)
- IC50 (Fatty acid synthase): 3.96 µM (active)
- CC50 [6]: 100 µM (active)
- IC50 [7]: 1.04 µM (active)
